From publication PMC3919815, “Anti-Tumor Effects of Novel 5-O-Acyl Plumbagins Based on the Inhibition of Mammalian DNA Replicative Polymerase Activity” (PLoS ONE, 2014)

Legend:
HCT116 (colon cancer) = assay: Cancer cell viability, MTT assay; type: cell-based, human; conditions: 48 h, MTT; for suppression of cell proliferation: Fig. 5
Method: The following human cancer cell lines were obtained from the American Type Culture Collection (Manassas, VA, USA): lung (A549), prostate (DU145 and PC3), colon (HCT116 and HT-29), cervix (HeLa), hepatocellular liver (HepG2), breast (MCF-7), and pancreatic cancer (PANC-1). These cells were cultured in RPMI 1640 medium supplemented with 10% fetal bovine serum, penicillin (100 units/mL), streptomycin (100 µg/mL), and 1.6 mg/mL NaHCO3 at 37°C in a humid atmosphere of 5% CO2/95% air. For the cell viability assay, cells were seeded at 1×10^3 cells/well in a 96-well microplate with various concentrations of the test compounds, and incubated for 48 h. MTT (3-(4,5-dimethylthiazol-2-yl)-2,5-diphenyl tetrazolium bromide) solution was added to a final concentration 0.6 mg/mL in Milli-Q purified water for 2 h, after which time the medium was discarded and the cells lysed in DMSO. A540 was then measured in a microplate reader (Model 680, Bio-Rad Laboratories, Hercules, CA, USA).

Human pol λ = biological target: T1, Human pol λ (Homo sapiens, UniProt Q9UGP5); assay: DNA polymerase activity inhibition; type: biochemical; conditions: 10 µM compound; Fig. 4
T1 construct: His tag; made in house
T1 sequence (Q9UGP5 1-575): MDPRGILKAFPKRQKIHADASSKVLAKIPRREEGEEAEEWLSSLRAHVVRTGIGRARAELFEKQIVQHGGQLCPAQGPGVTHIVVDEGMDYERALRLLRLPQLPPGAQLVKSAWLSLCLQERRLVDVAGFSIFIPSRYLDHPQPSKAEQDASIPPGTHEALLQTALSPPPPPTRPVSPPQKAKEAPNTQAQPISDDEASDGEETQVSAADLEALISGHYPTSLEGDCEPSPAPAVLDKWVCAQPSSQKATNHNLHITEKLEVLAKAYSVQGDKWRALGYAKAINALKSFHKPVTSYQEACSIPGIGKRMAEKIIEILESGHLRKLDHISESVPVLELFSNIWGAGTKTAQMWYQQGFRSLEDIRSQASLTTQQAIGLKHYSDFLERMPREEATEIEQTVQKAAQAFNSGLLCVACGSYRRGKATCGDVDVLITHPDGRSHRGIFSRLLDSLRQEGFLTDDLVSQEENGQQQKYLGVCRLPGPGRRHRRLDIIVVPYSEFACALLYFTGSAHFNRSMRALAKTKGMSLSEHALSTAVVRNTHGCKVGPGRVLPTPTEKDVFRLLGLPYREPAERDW
From the text: (§1) Pol α was purified from calf thymus by immunoaffinity column chromatography as described by Tamai et al.. Recombinant rat pol β was purified from Escherichia coli JMpβ5 as described by Date et al.. The human pol γ catalytic gene was cloned into pFastBac. Histidine-tagged enzyme was expressed using the BACTO-BAC HT Baculovirus Expression System according to the manufacturer's instructions (Life Technologies, Frederick, MD, USA) and purified using ProBound resin (Invitrogen Japan, Tokyo Japan). Human pols δ and ε were purified by nuclear fractionation of human peripheral blood cancer cells (Molt-4) using the second subunit of pol δ and ε-conjugated affinity column chromatography, respectively. A truncated form of human pol η (residues 1–511) tagged with His6 at its C-terminal was expressed in E. coli cells and purified as described by Kusumoto et al.. A recombinant mouse pol ι tagged with His6 at its C-terminal was expressed and purified by Ni–NTA column chromatography. A truncated form of pol κ (residues 1–560) with 6× His-tags attached at the C-terminus was overexpressed in E. coli and purified as described by Ohashi et al.. Recombinant human His-pol λ was overexpressed and purified according to a method described by Shimazaki et al.. Recombinant human His-pol μ was overexpressed in E. coli BL21 and purified using Glutathione Sepharose 4B (GE Healthcare Bio-Science Corp., Piscataway, NJ, USA) column chromatography according to the method for pol λ preparation by Shimazaki et al.. Pol α from a higher plant, cauliflower, was purified from the inflorescence structure according to the methods outlined by Sakaguchi et al.. Recombinant rice (Oryza sativa L. cv. Nipponbare) pol λ tagged with His6 at the C-terminus was expressed in E. coli and purified as described by Uchiyama et al.. Calf TdT, Taq pol, T4 pol, T7 RNA polymerase, and T4 polynucleotide kinase were purchased from Takara Bio Inc. (Kyoto, Japan). The Klenow fragment of pol I from E. coli was purchased from Worthington Biochemical Corp. (Freehold, NJ, USA). Bovine pancreas deoxyribonuclease I was obtained from Stratagene Cloning Systems (La Jolla, CA, USA).
(§2) The reaction mixtures for calf pol α, rat pol β, plant pol α, and prokaryotic pols have been described previously, [35]; those for pol γ as well as pols δ and ε were previously described by Umeda et al. and Ogawa et al., respectively. Those for pols η, ι, and κ were the same as for pol α, and those for pols λ and μ were the same as for pol β. For the pol reactions, poly(dA)/oligo(dT)18 (A/T, 2/1) and dTTP were used as the DNA template-primer substrate and nucleotide (dNTP; 2′-deoxynucleoside-5′-triphosphate) substrate, respectively. For the TdT reactions, oligo(dT)18 (3′-OH) and dTTP were used as the DNA primer substrate and nucleotide substrate, respectively.
(§3) The chemically synthesized 5-O-acyl plumbagins (2a–j) were dissolved in distilled dimethyl sulfoxide (DMSO) to various concentrations and sonicated for 30 s. Subsequently, 4 µL aliquots were mixed with 16 µL of each enzyme (0.05 units) in 50 mM Tris-HCl at pH 7.5, containing 1 mM dithiothreitol, 50% glycerol (by vol), and 0.1 mM ethylenediaminetetraacetic acid and held at 0°C for 10 min. These inhibitor-enzyme mixtures in 8 µL volumes were next added to 16 µL of enzyme standard reaction mixture and incubated at 37°C for 60 min, except for Taq pol, which was incubated at 74°C for 60 min. Activity without inhibitor was considered 100%, and the relative activity was determined for each inhibitor concentration. One unit of pol activity was defined as the amount of each enzyme that catalyzed the incorporation of 1 nmol dTTP into synthetic DNA template primers in 60 min, at 37°C, and under standard reaction conditions, [35].

Human pol κ = biological target: T2, Human pol κ (Homo sapiens, UniProt Q9UBT6); assay: DNA polymerase activity inhibition; type: biochemical; conditions: 10 µM compound; Fig. 4
T2 construct: A truncated form of pol κ (residues 1–560) with 6× His-tags attached at the C-terminus; 6× His (C); made in house; host or cells: E. coli
T2 sequence (Q9UBT6 1-560): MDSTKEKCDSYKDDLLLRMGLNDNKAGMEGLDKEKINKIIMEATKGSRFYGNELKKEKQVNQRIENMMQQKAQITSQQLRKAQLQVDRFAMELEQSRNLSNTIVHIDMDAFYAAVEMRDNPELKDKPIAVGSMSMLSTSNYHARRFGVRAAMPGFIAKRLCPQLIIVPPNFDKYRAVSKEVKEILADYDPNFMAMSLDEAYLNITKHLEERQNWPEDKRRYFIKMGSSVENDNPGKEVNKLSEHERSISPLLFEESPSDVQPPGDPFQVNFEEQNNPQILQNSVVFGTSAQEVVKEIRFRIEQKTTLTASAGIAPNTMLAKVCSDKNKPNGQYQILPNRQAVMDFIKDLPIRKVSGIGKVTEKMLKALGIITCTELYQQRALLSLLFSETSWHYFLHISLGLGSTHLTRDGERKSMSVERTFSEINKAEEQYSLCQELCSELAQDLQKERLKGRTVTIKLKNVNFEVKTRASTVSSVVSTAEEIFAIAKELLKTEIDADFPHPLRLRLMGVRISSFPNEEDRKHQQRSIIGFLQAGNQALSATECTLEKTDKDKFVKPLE
From the text: as §1, §2, §3

pol α = tested on: pol α; parameters: method as in PMID 10942777; conditions: cited from earlier work
pol δ = tested on: pol δ; parameters: method as in PMID 10942777; conditions: cited from earlier work
pol ε = tested on: pol ε; parameters: method as in PMID 10942777; conditions: cited from earlier work
Calf pol α = biological target: T3, Calf pol α (Bos taurus, UniProt A0AAA9TD94); assay: DNA polymerase activity inhibition; type: biochemical; conditions: 10 µM compound; Fig. 4
T3 construct: from tissue; host or cells: calf thymus
T3 sequence (A0AAA9TD94 1-1441): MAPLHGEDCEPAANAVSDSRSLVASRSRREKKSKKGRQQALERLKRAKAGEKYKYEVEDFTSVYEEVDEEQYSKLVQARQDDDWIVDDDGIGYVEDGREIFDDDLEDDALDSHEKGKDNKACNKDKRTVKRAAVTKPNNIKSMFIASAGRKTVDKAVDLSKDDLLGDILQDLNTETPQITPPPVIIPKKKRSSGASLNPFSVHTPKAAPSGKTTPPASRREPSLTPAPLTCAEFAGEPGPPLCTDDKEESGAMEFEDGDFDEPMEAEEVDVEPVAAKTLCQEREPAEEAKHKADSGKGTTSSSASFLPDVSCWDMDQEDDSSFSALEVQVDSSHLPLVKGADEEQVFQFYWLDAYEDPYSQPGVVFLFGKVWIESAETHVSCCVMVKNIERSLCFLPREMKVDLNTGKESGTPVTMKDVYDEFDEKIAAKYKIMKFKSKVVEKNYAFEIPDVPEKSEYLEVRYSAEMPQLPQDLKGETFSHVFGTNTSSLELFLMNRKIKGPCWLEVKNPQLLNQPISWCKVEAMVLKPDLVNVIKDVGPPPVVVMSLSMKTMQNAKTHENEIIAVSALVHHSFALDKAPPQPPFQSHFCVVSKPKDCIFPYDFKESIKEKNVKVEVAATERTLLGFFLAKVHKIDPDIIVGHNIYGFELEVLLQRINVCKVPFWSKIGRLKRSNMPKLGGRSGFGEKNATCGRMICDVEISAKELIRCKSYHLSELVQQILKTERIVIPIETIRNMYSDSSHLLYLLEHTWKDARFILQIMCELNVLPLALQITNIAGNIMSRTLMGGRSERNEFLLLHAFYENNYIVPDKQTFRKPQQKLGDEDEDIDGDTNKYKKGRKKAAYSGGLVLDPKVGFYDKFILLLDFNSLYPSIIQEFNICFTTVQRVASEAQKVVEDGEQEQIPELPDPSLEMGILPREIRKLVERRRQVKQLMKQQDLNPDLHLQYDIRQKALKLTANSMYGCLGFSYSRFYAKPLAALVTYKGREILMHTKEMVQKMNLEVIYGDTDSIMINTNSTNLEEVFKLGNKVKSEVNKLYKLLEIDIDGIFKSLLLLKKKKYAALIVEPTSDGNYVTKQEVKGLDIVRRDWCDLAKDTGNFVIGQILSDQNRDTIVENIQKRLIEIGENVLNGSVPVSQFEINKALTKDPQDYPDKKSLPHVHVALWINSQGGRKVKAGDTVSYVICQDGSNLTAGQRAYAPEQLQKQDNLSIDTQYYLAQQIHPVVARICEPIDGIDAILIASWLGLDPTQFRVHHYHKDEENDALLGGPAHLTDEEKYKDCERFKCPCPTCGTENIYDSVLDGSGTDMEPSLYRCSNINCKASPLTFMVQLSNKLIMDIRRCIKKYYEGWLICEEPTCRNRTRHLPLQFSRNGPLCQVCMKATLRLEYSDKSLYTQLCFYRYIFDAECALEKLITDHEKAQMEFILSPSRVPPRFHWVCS
From the text: as §1, §2, §3

HT-29 solid tumors = assay: In vivo anti-tumor assay; parameters: species or system nude mice; conditions: at 40 days; 5 mg/kg subcutaneously in PBS, versus PBS control; n = 6
From the text: Male BALB/c nu/nu mice at 5 week of age (18 g) were purchased from Japan SLC, Inc. (Shizuoka, Japan). Mice receiving standard laboratory chow and water ad libitum were acclimatized for 1 week before inoculation with cancer cells. For in vivo experiments, human colon HT-29 cells (1×10^7 cells/mouse) were subcutaneously injected into nude mice. Mice bearing solid tumors that had grown to approximately 100 mm^3 in volume (tumor volume = length×width×height) at 12 days after implantation were used for the assessment of anti-tumor effects. They were divided randomly into five groups (n = 6/group). One of the five groups was a control group injected with 0.1 mL of phosphate buffered saline (PBS) alone, and other groups were injected with vitamin K3 (3), juglone (4), C18:1-acyl juglone (5f), and C18:1-acyl plumbagin (2f) dissolved in PBS at a dose of 5 mg/kg. The above administrations all took place between days 12–39 subsequent to implantation. All mice were injected subcutaneously 14 times at […] with the compound and PBS alone (control). Tumor growth was measured at 1-day intervals for 40 days after implantation. At the end of the in vivo anti-tumor assay, some mice treated with the test compounds and PBS were independently examined to observe major organs such as lung, heart, spleen, stomach, liver, pancreas, kidney, intestine, and brain.

[1] = Stability under basic conditions (Triton B, UV-vis); type: physicochemical; conditions: 1 equivalent Triton B in 1,4-dioxane and MeOH, 1.1×10^−3 M, 25°C
Method: A 2.2×10^−2 M solution of Triton B in MeOH was added to a 2.2×10^−2 M solution of each sample in 1,4-dioxane. Then, the mixture was diluted with 1,4-dioxane to a concentration of 1.1×10^−3 M. Then, the stability of each compound was monitored by UV-vis spectroscopy. UV-vis spectra were measured at 25°C on a UV-vis spectrophotometer (JASCO V-650, Tokyo, Japan). For comparison, UV-vis spectra of 1.1×10^−3 M solution of C18:1-acyl plumbagin (2f), and C18:1-acyl juglone (5f) in 1,4-dioxane and MeOH (19/1, v/v) were measured.

calf thymus dsDNA = assay: Thermal transition of dsDNA; type: binding; conditions: 15 µM compound (positive control); 6 µg/mL DNA, 0.1 M Na-phosphate buffer pH 7.0
Method: Thermal transition profiles of dsDNA to single-stranded DNA with or without test compound were obtained with a spectrophotometer (UV-2500; Shimadzu Corp., Kyoto, Japan) equipped with a thermoelectric cell holder according to previous methods. Calf thymus DNA (6 µg/mL) was dissolved in 0.1 M sodium phosphate buffer (pH 7.0) containing 1% DMSO. The solution temperature was equilibrated to 75°C for 10 min, and then increased by 1°C at 2-min intervals for each measurement point. Any change in the absorbance (260 nm) of the compound itself at each temperature point was automatically subtracted from that of DNA plus the compound in the spectrophotometer.

In the case of `CC1=CC(=O)c2c(O)cccc2C1=O` [compound 1, 5-hydroxy-2-methyl-1,4-naphthoquinone, reference compound], the “suppression of cell proliferation” value (HCT116 (colon cancer); 10 µM) is reported as “did not” and the “suppression of cell proliferation” value (HCT116 (colon cancer); 100 µM) is reported as “approximately 50%”.

In the case of `CC/C=C\C/C=C\C/C=C\C/C=C\C/C=C\C/C=C\CCC(=O)Oc1cccc2c1C(=O)C=C(C)C2=O` [2j, 5-O-docosahexaenoyloxy-2-methyl-1,4-naphthoquinone], the “inhibition of pol λ relative activity (in words)” value (Human pol λ) is reported as “strongest inhibitor” and the “inhibition of pol κ relative activity (in words)” value (Human pol κ) is reported as “strongest inhibitor”.

In the case of `C[C@@]1(CO)[C@H](O)CC[C@@]2(C)[C@H]1CC[C@H]1C[C@@H]3C[C@@]12CC[C@]3(O)CO` [aphidicolin], the IC50 (pol α) is given as 20 µM, the IC50 (pol δ) is given as 13 µM and the IC50 (pol ε) is given as 16 µM.

With `CCCCCCCCCCCCCCCCCC(=O)Oc1cccc2c1C(=O)C=C(C)C2=O` [2e, 5-O-octadecanoyloxy-2-methyl-1,4-naphthoquinone] the melting point was 67 to 70 °C and the “inhibition of pol α relative activity (in words)” value (Calf pol α) was “did not inhibit”.

With `O=C1C=CC(=O)c2c(O)cccc21` [compound 4, 5-hydroxy-1,4-naphthoquinone] the “decreased rates of tumor volume” value (HT-29 solid tumors) was 9.2%.

With `CC(=O)Oc1cccc2c1C(=O)C=C(C)C2=O` [2a, 5-O-acetoxy-2-methyl-1,4-naphthoquinone] the melting point was 118 to 124 °C, the “inhibition of pol λ relative activity (in words)” value (Human pol λ) was “hardly inhibited” and the “inhibition of pol κ relative activity (in words)” value (Human pol κ) was “hardly inhibited”.

For `CC1=CC(=O)c2ccccc2C1=O` [compound 3, 2-methyl-1,4-naphthoquinone], the “decreased rates of tumor volume” value (HT-29 solid tumors) was 7.0%.

In the case of `CCCCCCCC/C=C\CCCCCCCC(=O)Oc1cccc2c1C(=O)C=CC2=O` [5f, reference compound], the “decreased rates of tumor volume” value (HT-29 solid tumors) is reported as 10.3% and the “stability under basic conditions (UV spectra)” value [1] is reported as “readily decomposes under basic conditions”.

In the case of `CCCCC/C=C\C/C=C\CCCCCCCC(=O)Oc1cccc2c1C(=O)C=C(C)C2=O` [2g, 5-O-linoleoyloxy-2-methyl-1,4-naphthoquinone], the cell proliferation rate (HCT116 (colon cancer); 10 µM, control = 100%) is reported as < 60%.

For `CC[n+]1c(-c2ccccc2)c2cc(N)ccc2c2ccc(N)cc21` [EtBr, ethidium bromide], the “thermal transition (Tm) of dsDNA from 75 to 90°C” value (calf thymus dsDNA) was “an obvious thermal transition was observed”.
